In US11633378B2, “Methods and compositions for delivering mycophenolic acid active agents to non-human mammals” (OKAVA PHARMACEUTICALS, INC., priority 2017, dated 2023):
Where two headings read alike, the source gives them in different places.

Assay: Study 1: single dose cross-over pharmacokinetics, oral vs intracolonic Na.MPA
Parameters: species or system male beagle dogs
Conditions: dog, in vivo
Procedure: Two single dose cross-over studies were conducted using a canine model (male beagle dogs) to evaluate the potential of an enteric coated-extended release sodium mycophenolate formulation (“EC-ER-Na.MP”). In a first cross-over study, the pharmacokinetics of MPA and its metabolites (MPAG and AcMPAG) following oral dosing of 180 mg of EC-Na.MPA was compared with intracolonic (IC) administration of Na.MPA. In a second cross-over study, 270 mg of an EC-ER-Na.MPA formulation was administered in the both fed and fasted states and pharmacokinetics were compared with oral administration of 10 mg/kg MMF in the fasted state. Both studies were conducted by Absorption Systems (San Diego, Calif.).
Study 1: For three days prior to IC dosing, dogs (n=5) were offered a soft diet consisting of canned wet food (Pedigree® Choice Cuts). Otherwise, the dogs were offered their standard diet (LabDiet 5006 laboratory canine diet). Prior to each dosing event, the dogs were fasted for 12 hours prior to dosing until 4 hours post-dose, when food was returned. Animals had free access to water throughout the study. Prior to IC dosing, each dog was given a non-stimulant enema approximately 1 hour prior to dosing to remove feces from the colon. Prior to PO dosing, each dog (n=5) was pre-treated with an intramuscular dose of pentagastrin (6 μg/kg) approximately 30 minutes prior to dosing. Capsules were administered by placement in the back of the throat followed by a 10 mL flush with water.
Each dog received a total dose of 180 mg of MPA for each dose. For IC dosing, MPA was delivered as a solution via an endoscope, and for PO dosing each dog received a single Myfortic® 180 mg enteric coated capsule. Following administration, blood samples were collected up to 24 hours post-dose. Plasma concentrations of MPA, MPAG, and AcMPAG were determined with a qualified LC-MS/MS method, and pharmacokinetic parameters were determined with WinNonlin v.6.4 software.

Q: Which Cmax (male, beagle, 180 mg) does the source give for `COc1c(C)c2c(c(O)c1C/C=C(\C)CCC(=O)O)C(=O)OC2` [MPA, Mycophenolic acid] here?
A: 29500 ± 12600 ng/mL

Q: And the “MPA Cmax” value (male, beagle, 180 mg)?
A: 29460 ng/mL

Q: And the half-life (male, beagle, 180 mg)?
A: 5.55 ± 1.77 h

Q: What about the Cmax (male, beagle, po, 180 mg) of the same compound?
A: 27300 ± 12000 ng/mL

Q: And the “MPA Cmax” value (male, beagle, po, 180 mg)?
A: 27320 ng/mL

Q: What about the half-life (male, beagle, po, 180 mg) of the same compound?
A: 4.49 h

Q: What does the source list for `COc1c(C)c2c(c(O)c1C/C=C(\C)CCC(=O)O)C(=O)OC2` [Na•MPA, sodium mycophenolate]?
A: MPA:metabolite ratios compared with oral MMF or enteric-coated Na.MPA: higher MPA:metabolite ratios; MRT last (male beagle dogs, plasma, ORAL 180 mg (Myfortic enteric coated capsule), single dose, fasted, read-out: MPA MRTlast): 2.86 h; AUC(0-inf) (male, beagle, 180 mg): 31900 ng·h/mL; AUC(0-t) (male, beagle, 180 mg): 31000 ng·h/mL; MPA Cmax (male, beagle, 180 mg): 29460 ng/mL; MPA t1/2 (male, beagle, 180 mg): 5.55 h; MPA/AcMPAG Ratio (AUClast) (male, beagle, 180 mg): 171.19; MPA/MPAG Ratio (AUC∞) (male, beagle, 180 mg): 2.45; MRT last (male, beagle, 180 mg): 2.76 h; Tmax (male, beagle, 180 mg): 0.23 h; AUC(0-inf) (male, beagle, po, 180 mg): 45700 ng·h/mL; AUC(0-t) (male, beagle, po, 180 mg): 36400 ng·h/mL; MPA Cmax (male, beagle, po, 180 mg): 27320 ng/mL; MPA t1/2 (male, beagle, po, 180 mg): 4.49 h; MPA/AcMPAG Ratio (AUClast) (male, beagle, po, 180 mg): 88.40; MPA/MPAG Ratio (AUClast) (male, beagle, po, 180 mg): 1.42; MPA/MPAG Ratio (AUC∞) (male, beagle, po, 180 mg): 1.29; Tmax (male, beagle, po, 180 mg): 1 h
